Source: ChEMBL document CHEMBL4342428, “d-Limonene Ameliorates Myocardial Infarction Injury by Reducing Reactive Oxygen Species and Cell Apoptosis in a Murine Model” (2019)
Active and inactive are the calls of the source. No cut-off for these calls is given here.

Assays:
[1] = tested on: Mus musculus; test: Cardioprotective activity in Swiss mouse model of isoproterenol-induced myocardial Infarction assessed as abnormal ST-segment at 1200 mg/kg administered 30 mins post isoproterenol stimulation and measured for 5 mins by electrocardiographic analysis (reference value: 70%); type: functional
[2] = tested on: Mus musculus; test: Cardioprotective activity in Swiss mouse model of myocardial infarction assessed as reversal of isoproterenol-induced increase in QTc interval at 1200 mg/kg administered 30 mins post isoproterenol stimulation and measured for 5 mins by electrocardiographic analysis; type: functional, organism-based
[3] = tested on: Mus musculus; test: Cardioprotective activity in Swiss mouse model of myocardial infarction assessed as reversal of isoproterenol-induced increase in heart rate at 1200 mg/kg administered 30 mins post isoproterenol stimulation and measured for 5 mins by electrocardiographic analysis; type: functional, organism-based
[4] = tested on: Mus musculus; test: Cardioprotective activity in Swiss mouse model of isoproterenol-induced myocardial infarction assessed as reduction in myocardial infarct size at 1200 mg/kg administered 30 mins post isoproterenol stimulation by TTC staining based assay; type: functional, organism-based
[5] = tested on: Mus musculus; test: Cardioprotective activity in Swiss mouse model of isoproterenol-induced myocardial infarction assessed as reduction in lactate dehydrogenase at 1200 mg/kg administered 30 mins post isoproterenol stimulation; type: functional, organism-based
[6] = tested on: Mus musculus; test: Cardioprotective activity in Swiss mouse model of isoproterenol-induced myocardial infarction assessed as reduction in creatine kinase myocardial band at 1200 mg/kg administered 30 mins post isoproterenol stimulation; type: functional, organism-based
[7] = tested on: Mus musculus; test: Cardioprotective activity against isoproterenol-induced oxidative stress in Swiss mouse model of myocardial infarction assessed as reduction in ROS generation at 1200 mg/kg administered 30 mins post isoproterenol stimulation by DHE staining based fluorescence assay; type: functional, organism-based
[8] = tested on: Mus musculus; test: Cardioprotective activity against isoproterenol-induced apoptosis in Swiss mouse model of myocardial infarction assessed as increase in Bcl2 expression at 1200 mg/kg administered 30 mins post isoproterenol stimulation by Western blot analysis; type: functional, organism-based
[9] = tested on: Mus musculus; test: Cardioprotective activity against isoproterenol-induced apoptosis in Swiss mouse model of myocardial infarction assessed as reduction in Bax/Bcl2 expression ratio in at 1200 mg/kg administered 30 mins post isoproterenol stimulation by Western blot analysis; type: functional, organism-based
[10] = tested on: Mus musculus; test: Cardioprotective activity against isoproterenol-induced apoptosis in Swiss mouse model of myocardial infarction assessed as reduction in Bax expression at 1200 mg/kg administered 30 mins post isoproterenol stimulation by Western blot analysis; type: functional, organism-based
[11] = tested on: Mus musculus; test: Cardioprotective activity in Swiss mouse model of isoproterenol-induced myocardial Infarction assessed as abnormal ST-segment at 10 umol, ip administered 30 mins post isoproterenol stimulation and measured for 5 mins by electrocardiographic analysis (reference value: 70%); type: functional
[12] = tested on: Mus musculus; test: Cardioprotective activity in Swiss mouse model of myocardial infarction assessed as reversal of isoproterenol-induced increase in QTc interval at 10 umol, ip administered 30 mins post isoproterenol stimulation and measured for 5 mins by electrocardiographic analysis; type: functional, organism-based
[13] = tested on: Mus musculus; test: Cardioprotective activity in Swiss mouse model of myocardial infarction assessed as reversal of isoproterenol-induced increase in heart rate at 10 umol, ip administered 30 mins post isoproterenol stimulation and measured for 5 mins by electrocardiographic analysis; type: functional, organism-based
[14] = tested on: Mus musculus; test: Cardioprotective activity in Swiss mouse model of isoproterenol-induced myocardial infarction assessed as reduction in myocardial infarct size at 10 umol, ip administered 30 mins post isoproterenol stimulation by TTC staining based assay; type: functional, organism-based
[15] = tested on: Mus musculus; test: Cardioprotective activity in Swiss mouse model of isoproterenol-induced myocardial infarction assessed as reduction in inflammatory cell infiltration in myocardium at 10 umol, ip administered 30 mins post isoproterenol stimulation by H and E staining based histopathological analysis; type: functional, organism-based
[16] = tested on: Mus musculus; test: Cardioprotective activity in Swiss mouse model of isoproterenol-induced myocardial infarction assessed as reduction in lactate dehydrogenase at 10 umol, ip administered 30 mins post isoproterenol stimulation; type: functional, organism-based
[17] = tested on: Mus musculus; test: Cardioprotective activity in Swiss mouse model of isoproterenol-induced myocardial infarction assessed as reduction in creatine kinase myocardial band at 10 umol, ip administered 30 mins post isoproterenol stimulation; type: functional, organism-based
[18] = tested on: Mus musculus; test: Cardioprotective activity in Swiss mouse model of myocardial infarction assessed as protection against isoproterenol-induced discontinuity in myocardium at 10 umol, ip administered 30 mins post isoproterenol stimulation by H and E staining based histopathological analysis; type: functional, organism-based
[19] = tested on: Mus musculus; test: Cardioprotective activity in Swiss mouse model of myocardial infarction assessed as protection against isoproterenol-induced mononuclear cell infiltration in myocardium at 10 umol, ip administered 30 mins post isoproterenol stimulation by H and E staining based histopathological analysis; type: functional, organism-based
[20] = tested on: Mus musculus; test: Cardioprotective activity in Swiss mouse model of myocardial infarction assessed as protection against isoproterenol-induced degeneration in myocardium at 10 umol, ip administered 30 mins post isoproterenol stimulation by H and E staining based histopathological analysis; type: functional, organism-based
[21] = tested on: Mus musculus; test: Cardioprotective activity in Swiss mouse model of myocardial infarction assessed as protection against isoproterenol-induced wide spacing in myocardium at 10 umol, ip administered 30 mins post isoproterenol stimulation by H and E staining based histopathological analysis; type: functional, organism-based
[22] = tested on: Mus musculus; test: Cardioprotective activity in Swiss mouse model of myocardial infarction assessed as protection against isoproterenol-induced vacuolation in myocardium at 10 umol, ip administered 30 mins post isoproterenol stimulation by H and E staining based histopathological analysis; type: functional, organism-based
[23] = tested on: Mus musculus; test: Cardioprotective activity in Swiss mouse model of myocardial infarction assessed as protection against isoproterenol-induced capillary congestion in myocardium at 10 umol, ip administered 30 mins post isoproterenol stimulation by H and E staining based histopathological analysis; type: functional, organism-based
[24] = tested on: Mus musculus; test: Cardioprotective activity against isoproterenol-induced oxidative stress in Swiss mouse model of myocardial infarction assessed as reduction in ROS generation at 10 umol, ip administered 30 mins post isoproterenol stimulation by DHE staining based fluorescence assay; type: functional, organism-based
[25] = tested on: Mus musculus; test: Cardioprotective activity against isoproterenol-induced oxidative stress in Swiss mouse model of myocardial infarction assessed as reduction in lipid peroxidation at 10 umol, ip administered 30 mins post isoproterenol stimulation by TBARS method; type: functional, organism-based
[26] = tested on: Mus musculus; test: Cardioprotective activity against isoproterenol-induced oxidative stress in Swiss mouse model of myocardial infarction assessed as reduction in protein carbonylation at 10 umol, ip administered 30 mins post isoproterenol stimulation by spectrophotometric method; type: functional, organism-based
[27] = tested on: Mus musculus; test: Cardioprotective activity against isoproterenol-induced oxidative stress in Swiss mouse model of myocardial infarction assessed as reduction in sulfhydryl level in cardiac tissue homogenate at 10 umol, ip administered 30 mins post isoproterenol stimulation by spectrophotometric method; type: functional, organism-based
[28] = tested on: Mus musculus; test: Cardioprotective activity against isoproterenol-induced oxidative stress in Swiss mouse model of myocardial infarction assessed as change in ferric ion reducing activity at 10 umol, ip administered 30 mins post isoproterenol stimulation by FRAP assay; type: functional, organism-based
[29] = tested on: Mus musculus; test: Cardioprotective activity against isoproterenol-induced oxidative stress in Swiss mouse model of myocardial infarction assessed as increase in catalase activity at 10 umol, ip administered 30 mins post isoproterenol stimulation by spectrophotometric method; type: functional, organism-based
[30] = tested on: Mus musculus; test: Cardioprotective activity against isoproterenol-induced oxidative stress in Swiss mouse model of myocardial infarction assessed as increase in SOD activity at 10 umol, ip administered 30 mins post isoproterenol stimulation by spectrophotometric method; type: functional, organism-based
[31] = tested on: Mus musculus; test: Cardioprotective activity against isoproterenol-induced oxidative stress in Swiss mouse model of myocardial infarction assessed as increase in GPx activity at 10 umol, ip administered 30 mins post isoproterenol stimulation by spectrophotometric method; type: functional, organism-based
[32] = tested on: Mus musculus; test: Cardioprotective activity against isoproterenol-induced apoptosis in Swiss mouse model of myocardial infarction assessed as reduction in Bax expression at 10 umol, ip administered 30 mins post isoproterenol stimulation by Western blot analysis; type: functional, organism-based
[33] = tested on: Mus musculus; test: Cardioprotective activity against isoproterenol-induced apoptosis in Swiss mouse model of myocardial infarction assessed as change in Bcl2 expression at 10 umol, ip administered 30 mins post isoproterenol stimulation by Western blot analysis; type: functional, organism-based
[34] = tested on: Mus musculus; test: Cardioprotective activity against isoproterenol-induced apoptosis in Swiss mouse model of myocardial infarction assessed as reduction in Bax/Bcl2 expression ratio in at 10 umol, ip administered 30 mins post isoproterenol stimulation by Western blot analysis; type: functional, organism-based
[35] = tested on: Mus musculus; test: Cardioprotective activity against isoproterenol-induced oxidative stress in Swiss mouse model of myocardial infarction assessed as reduction in caspase-3 expression at 10 umol, ip administered 30 mins post isoproterenol stimulation by Western blot analysis; type: functional, organism-based

## CC(=O)N[C@@H](CS)C(=O)O [ACETYLCYSTEINE]
[1]
  Activity: 20%
[2]
  Activity: Active
[3]
  Activity: Active
[4]
  Activity: Active
[5]
  Activity: Active
[6]
  Activity: Active
[7]
  Activity: Active
[8]
  Activity: Active
[9]
  Activity: Active
[10]
  Activity: Active

## C=C(C)[C@H]1CC=C(C)CC1 [D-LIMONENE]
[11]
  Activity: 30%
[12]
  Activity: Active
[13]
  Activity: Active
[14]
  Activity: Active
[15]
  Activity: Active
[16]
  Activity: Active
[17]
  Activity: Active
[18]
  Activity: Active
[19]
  Activity: Active
[20]
  Activity: Active
[21]
  Activity: Active
[22]
  Activity: Active
[23]
  Activity: Active
[24]
  Activity: Active
[25]
  Activity: Active
[26]
  Activity: Active
[27]
  Activity: Active
[28]
  Activity: inactive
[29]
  Activity: inactive
[30]
  Activity: Active
[31]
  Activity: Active
[32]
  Activity: Active
[33]
  Activity: inactive
[34]
  Activity: Active
[35]
  Activity: Active
